Test results reported in ChEMBL document CHEMBL1126682, “Quinolone antimicrobial agents substituted with morpholines at the 7-position. Syntheses and structure-activity relationships” (J Med Chem, 1993).
Values after ≈ are worked out from the molar mass of the structure shown.

What was measured:
[1] = test system: Staphylococcus aureus; assay: Effective dose against Staphylococcus aureus smith strain in mouse; type: functional
[2] = test system: Pseudomonas aeruginosa; assay: Minimum inhibition concentration against Pseudomonas aeruginosa U-31 strain; type: functional
[3] = test system: Escherichia coli; assay: Effective dose against Escherichia coli KC14 strain in mouse; type: functional
[4] = target: T1, GABA-A receptor; anion channel (Homo sapiens) (UniProt P14867+P47870+P18507+P28472+P48169+Q99928+Q9UN88+P34903+O00591+O14764+Q8N1C3+P18505+P78334+P47869+P31644+Q16445); assay: Percentage of GABA-induced chloride currents with 10 e-5 M 4-biphenylacetic acid; type: functional; details: Bull Frog
[5] = The compound was evaluated for the solubility in water at 25 degrees Centigrade; type: ADME
[6] = target: T1, GABA-A receptor; anion channel (Homo sapiens); assay: Percentage of GABA-induced chloride currents with compound alone at 10 e-4 M; type: functional; details: Bull Frog
[7] = test system: Staphylococcus aureus; assay: Minimum inhibitory concentration against Staphylococcus aureus Smith; type: functional
[8] = test system: Escherichia coli; assay: Minimum inhibition concentration against Escherichia coli NIHJ JC-2 strain; type: functional
[9] = test system: Enterococcus faecalis; assay: Minimum inhibition concentration against Enterococcus faecalis LS-101 strain; type: functional
[10] = target: GABA-A receptor; anion channel; assay: Inhibition of [3H]muscimol binding to GABA A receptor 4-biphenylacetic acid at 10 e-4 M; type: protein-complex assay; details: read-out: IC50
[11] = test system: Staphylococcus aureus; assay: Minimum inhibition concentration against Staphylococcus aureus FDA209P strain; type: functional
[12] = target: T1, GABA-A receptor; anion channel (Homo sapiens); assay: Percentage of GABA-induced chloride currents with 10e-4 M 4-biphenylacetic acid; type: functional; details: Bull Frog
[13] = test system: Mus musculus; assay: Percentage of mice with convulsion (400 mg/kg fenbufen); type: functional
[14] = test system: Escherichia coli; assay: Minimum inhibitory concentration against Escherichia coli KC14 strain; type: functional
[15] = test system: Streptococcus pneumoniae; assay: Minimum inhibition concentration against Streptococcus pneumoniae Type I strain; type: functional
[16] = target: GABA-A receptor; anion channel; assay: Inhibition of [3H]muscimol binding to GABA A receptor with compound alone at 10 e-4 M; type: protein-complex assay
[17] = test system: Mus musculus; assay: Percentage of mice with convulsion with compound alone at 400 mg/kg; type: functional
[18] = test system: Staphylococcus aureus; assay: Minimum inhibition concentration against Staphylococcus aureus MRSA strain; type: functional
[19] = target: GABA-A receptor; anion channel; assay: Inhibition of [3H]muscimol binding to GABA A receptor with 10 e-4 M 4-biphenylacetic acid; type: protein-complex assay

Structure (SMILES): CN(C)CC1CN(c2c(F)cc3c(=O)c(C(=O)O)cn(C4CC4)c3c2F)CCO1 (configuration not stated)
- ED50 [1]: 0.035 mg mouse-1
- MIC [2]: 3.13 µg/mL (≈ 7.68 µM)
- ED50 [3]: 0.009 mg mouse-1
- Currents [4]: 89%
- solubility [5]: > 1000 µg/mL
- Currents [6]: 91%
- MIC [7]: 0.012 µg/mL (≈ 0.0295 µM)
- MIC [8]: 0.2 µg/mL (≈ 0.491 µM)
- MIC [9]: 0.39 µg/mL (≈ 0.957 µM)
- IC50 [10]: > 100 µM
- MIC [11]: 0.025 µg/mL (≈ 0.0614 µM)
- Currents [12]: 83%
- Convulsion [13]: 0%
- MIC [14]: 0.05 µg/mL (≈ 0.123 µM)
- MIC [15]: 0.05 µg/mL (≈ 0.123 µM)
- IC50 [16]: > 100 µM
- Convulsion [17]: 0%

Structure (SMILES): NCC1CN(c2cc3c(cc2F)c(=O)c(C(=O)O)cn3C2CC2)CCO1 (configuration not stated)
- ED50 [1]: 0.835 mg mouse-1
- MIC [2]: 1.56 µg/mL (≈ 4.32 µM)
- ED50 [3]: 0.139 mg mouse-1
- Currents [4]: 90%
- solubility [5]: 390 µg/mL (≈ 1080 µM)
- Currents [6]: 93%
- MIC [7]: 0.05 µg/mL (≈ 0.138 µM)
- MIC [8]: 0.2 µg/mL (≈ 0.553 µM)
- MIC [9]: 0.2 µg/mL (≈ 0.553 µM)
- IC50 [10]: > 100 µM
- MIC [11]: 0.2 µg/mL (≈ 0.553 µM)
- Currents [12]: 81%
- Convulsion [13]: 0%
- MIC [14]: 0.1 µg/mL (≈ 0.277 µM)
- MIC [15]: 0.39 µg/mL (≈ 1.08 µM)
- IC50 [16]: > 100 µM
- Convulsion [17]: 0%

Structure (SMILES): O=C(O)c1cn(C2CC2)c2c(F)c(N3CCOC(CN4CCCCC4)C3)c(F)cc2c1=O (configuration not stated)
- MIC [2]: 50 µg/mL (≈ 112 µM)
- MIC [8]: 3.13 µg/mL (≈ 6.99 µM)
- MIC [9]: 25 µg/mL (≈ 55.9 µM)
- MIC [11]: 0.78 µg/mL (≈ 1.74 µM)
- MIC [15]: 6.25 µg/mL (≈ 14 µM)

Structure (SMILES): O=C(O)c1cn(C2CC2)c2cc(N3CCOCC3)c(F)cc2c1=O
- MIC [2]: 1.56 µg/mL (≈ 4.69 µM)
- Currents [4]: 99%
- Currents [6]: 100%
- MIC [8]: 0.2 µg/mL (≈ 0.602 µM)
- MIC [18]: 0.1 µg/mL (≈ 0.301 µM)
- MIC [9]: 0.78 µg/mL (≈ 2.35 µM)
- IC50 [19]: > 100 µM
- MIC [11]: 0.05 µg/mL (≈ 0.15 µM)
- Currents [12]: 91%
- Convulsion [13]: 0%
- MIC [15]: 3.13 µg/mL (≈ 9.42 µM)
- IC50 [16]: > 100 µM
- Convulsion [17]: 0%

Structure (SMILES): NCC1CN(c2c(F)cc3c(=O)c(C(=O)O)cn(CCF)c3c2F)CCO1 (configuration not stated)
- MIC [2]: 25 µg/mL (≈ 64.9 µM)
- MIC [8]: 6.25 µg/mL (≈ 16.2 µM)
- MIC [9]: 0.78 µg/mL (≈ 2.02 µM)
- MIC [11]: 0.78 µg/mL (≈ 2.02 µM)
- MIC [15]: 3.13 µg/mL (≈ 8.12 µM)

Structure (SMILES): CCn1cc(C(=O)O)c(=O)c2cc(F)c(N3CCNCC3)cc21 [NORFLOXACIN]
- ED50 [1]: 1 mg mouse-1
- MIC [2]: 0.39 µg/mL (≈ 1.22 µM)
- ED50 [3]: 0.054 mg mouse-1
- Currents [4]: 0%
- solubility [5]: 290 µg/mL (≈ 908 µM)
- Currents [6]: 38%
- MIC [7]: 0.2 µg/mL (≈ 0.626 µM)
- MIC [8]: 0.1 µg/mL (≈ 0.313 µM)
- MIC [18]: 12.5 µg/mL (≈ 39.1 µM)
- MIC [9]: 0.78 µg/mL (≈ 2.44 µM)
- IC50 [10]: 0.02 µM
- MIC [11]: 0.39 µg/mL (≈ 1.22 µM)
- Convulsion [13]: 100%
- MIC [14]: 0.05 µg/mL (≈ 0.157 µM)
- MIC [15]: 3.13 µg/mL (≈ 9.8 µM)
- IC50 [16]: 13 µM
- Convulsion [17]: 0%

Structure (SMILES): O=C(O)c1cn(C2CC2)c2c(F)c(N3CCNCC3)c(F)cc2c1=O
- MIC [2]: 0.1 µg/mL (≈ 0.286 µM)
- Currents [4]: 11%
- Currents [6]: 81%
- MIC [8]: 0.006 µg/mL (≈ 0.0172 µM)
- MIC [18]: 0.78 µg/mL (≈ 2.23 µM)
- MIC [9]: 0.2 µg/mL (≈ 0.573 µM)
- IC50 [10]: 0.12 µM
- MIC [11]: 0.1 µg/mL (≈ 0.286 µM)
- Currents [12]: 0%
- Convulsion [13]: 88%
- MIC [15]: 0.39 µg/mL (≈ 1.12 µM)
- IC50 [16]: 64 µM
- Convulsion [17]: 0%

Structure (SMILES): CCN(CC)CC1CN(c2c(F)cc3c(=O)c(C(=O)O)cn(C4CC4)c3c2F)CCO1 (configuration not stated)
- MIC [2]: 6.25 µg/mL (≈ 14.4 µM)
- MIC [8]: 0.39 µg/mL (≈ 0.896 µM)
- MIC [9]: 0.39 µg/mL (≈ 0.896 µM)
- MIC [11]: 0.1 µg/mL (≈ 0.23 µM)
- MIC [15]: 0.1 µg/mL (≈ 0.23 µM)

Structure (SMILES): CN(Cc1ccccc1)CC1CN(c2c(F)cc3c(=O)c(C(=O)O)cn(C4CC4)c3c2F)CCO1 (configuration not stated)
- MIC [2]: 25 µg/mL (≈ 51.7 µM)
- MIC [8]: 1.56 µg/mL (≈ 3.23 µM)
- MIC [9]: 1.56 µg/mL (≈ 3.23 µM)
- MIC [11]: 0.39 µg/mL (≈ 0.807 µM)
- MIC [15]: 0.78 µg/mL (≈ 1.61 µM)

Structure (SMILES): NCC1CN(c2c(F)cc3c(=O)c(C(=O)O)cn(-c4cc(F)cc(F)c4)c3c2F)CCO1 (configuration not stated)
- MIC [2]: 6.25 µg/mL (≈ 13.8 µM)
- MIC [8]: 0.39 µg/mL (≈ 0.864 µM)
- MIC [9]: 0.39 µg/mL (≈ 0.864 µM)
- MIC [11]: 0.2 µg/mL (≈ 0.443 µM)
- MIC [15]: 0.2 µg/mL (≈ 0.443 µM)

Structure (SMILES): NCC1CN(c2c(F)cc3c(=O)c(C(=O)O)cn(C4CC4)c3c2Cl)CCO1 (configuration not stated)
- MIC [2]: 1.56 µg/mL (≈ 3.94 µM)
- MIC [8]: 0.1 µg/mL (≈ 0.253 µM)
- MIC [9]: 0.05 µg/mL (≈ 0.126 µM)
- MIC [11]: 0.012 µg/mL (≈ 0.0303 µM)
- MIC [15]: 0.05 µg/mL (≈ 0.126 µM)

Structure (SMILES): CC(=O)NCC1CN(c2c(F)cc3c(=O)c(C(=O)O)cn(C4CC4)c3c2F)CCO1 (configuration not stated)
- MIC [2]: 12.5 µg/mL (≈ 29.7 µM)
- MIC [8]: 1.56 µg/mL (≈ 3.7 µM)
- MIC [9]: 0.78 µg/mL (≈ 1.85 µM)
- MIC [11]: 0.2 µg/mL (≈ 0.475 µM)
- MIC [15]: 0.78 µg/mL (≈ 1.85 µM)
